“Also recorded” adds a separate entry of the source.
Tests used:
HER2 (pY1248) in NCI-N87 = target: T1, HER2 (pY1248) in NCI-N87 (Homo sapiens, UniProt P04626); test: HER2 activation in NCI-N87 gastric cancer cells, western blot; format: cell-based
T1 construct: host or cells: NCI-N87
Description: (A-C) HER2-positive […] (SKBR3, A; NCI-N87, B; BT474, C) treated or not with Ebselen
indicated, were analyzed by western blot to evaluate HER2 activation status using antibodies directed
Proliferation was assessed by Incucyte during 4 days.

HER2 (pY1248) in SKOV3 = target: T2, HER2 (pY1248) in SKOV3 (Homo sapiens, UniProt P04626); test: HER2 activation in SKOV3 ovarian cancer cells, western blot; format: cell-based; conditions: ebselen oxide 0–10 μM 24 h, AG1478 5 μM
T2 construct: host or cells: SKOV3
Description: Human bone marrow endothelial cells (HBMECs) kindly provided by Dr. B. Weksler (Weill Medical College of Cornell University, NY) were cultured as described previously. The human breast cancer cell lines [SKBR3 (RRID:CVCL_0033), BT474 (RRID:CVCL_0179), and MDA‐MB‐231 (RRID:CVCL_0062)], the human gastric [NCI‐87 (RRID:CVCL_1603)] and ovarian [SKOV3 (RRID:CVCL_0532)] cancer cell lines were obtained from the American Type Culture Collection (Manassas, VA) and were maintained in DMEM containing 10% FBS. All cell lines were cultured under 5% CO2 at 37 °C. HBMECs were transfected using Amaxa Inc nucleofector system (Kit V and U015 program). […]
Fig. 3 Ebselen oxide inhibits HER2 activation and HER2‐dependent proliferation in gastric and ovarian HER2^+ cancer cells. (A) HER2‐positive NCI‐87 gastric cancer cells were treated with ebselen oxide (0–20 μM) for 24 h, lysed, and analyzed by western blot using anti‐pY1248‐HER2, HER2, and β‐tubulin antibodies. […] (B) HER2‐positive SKOV3 ovarian cancer cells were treated with ebselen oxide (0–10 μM) for 24 h, lysed, and analyzed by western blot using anti‐pY1248‐HER2, HER2, and ezrin antibodies. […] (C, D) Proliferation curves of NCI‐N87 gastric (C) or SKOV3 ovarian (D) cancer cells treated with vehicle or 7–10 μM ebselen oxide measured by MTT assay. […]

NCI-N87 [1] = test: Proliferation of NCI-N87 cells; format: cell-based, human; conditions: ebselen oxide 7–10 μM, AG1478 5 μM
Description: Fig. 3 Ebselen oxide inhibits HER2 activation and HER2‐dependent proliferation in gastric and ovarian HER2^+ cancer cells. (A) HER2‐positive NCI‐87 gastric cancer cells were treated with ebselen oxide (0–20 μM) for 24 h, lysed, and analyzed by western blot using anti‐pY1248‐HER2, HER2, and β‐tubulin antibodies. A representative western blot is shown out of 4 independent experiments. (B) HER2‐positive SKOV3 ovarian cancer cells were treated with ebselen oxide (0–10 μM) for 24 h, lysed, and analyzed by western blot using anti‐pY1248‐HER2, HER2, and ezrin antibodies. A western blot is shown (n = 1). (C, D) Proliferation curves of NCI‐N87 gastric (C) or SKOV3 ovarian (D) cancer cells treated with vehicle or 7–10 μM ebselen oxide measured by MTT assay. Data are mean ± SEM (n = 9–12) of three independent experiments.
Supplementary figure 4: NCI-N87 and SKOV3 cancer cell lines are addicted to the HER2 pathway
(A) NCI-N87 cells were treated (+) or not (-) with a non-specific HER2 inhibitor AG1478 (5 µM). Whole cell lysates were analyzed by western blot with pY1248 HER2, HER2 and pERK antibodies.
(B) SKOV3 cells were treated (+) or not (-) with a non-specific HER2 inhibitor AG1478 (5 µM). Whole cell lysates were analyzed by western blot with pY1248 HER2, HER2, pERK or beta-tubulin antibodies.
(C) Proliferation curves of NCI-N87 treated or not with AG1478 (5 µM). Data are mean ± sem (n=4-6). 2- […]

SKOV3 = test: Proliferation of SKOV3 cells; format: cell-based, human; conditions: ebselen oxide 7–10 μM, AG1478 5 μM
[2] = target: T3, JMHER2/FERME interaction (biot-JMHER2 peptide and GST-FERME, N-terminal FERM domain of ezrin) (Homo sapiens, UniProt P04626); test: AlphaScreen competition of HER2 juxtamembrane peptide / ezrin FERM domain interaction; format: binding; conditions: for Inhibition of HER2-FERME interaction, %: compound 0–50 μM, biot-JMHER2 5 nM; for EC50: read-out: EC50, μM (inhibition of HER2-FERME interaction); for Competition with HER2/FERM interaction / binding affinity for JMHER2: compared to ebselen oxide
T3 construct: purchased Proteogenix
Description: Biotinylated peptide derived from HER2 cytosolic juxtamembrane region (JMHER2, […] ) has been synthesized by Proteogenix (Schiltigheim, France). The binding reaction was described previously. Briefly, white 384‐well Optiplates (PerkinElmer, Whalham, MA, USA) were used to prepare GST‐FERME and biotinylated peptide in a binding buffer (PBS, pH 7.4, 5 mM MgCl2, and 0.02% CHAPS). GST‐FERME was incubated with biotinylated‐HER2 for 30 min at room temperature. AlphaScreen® Streptavidin Donor beads (20 μg·mL^−1) and Glutathione AlphaLISA® Acceptor Beads (20 μg·mL^−1) were added to the wells for overnight incubation in the dark and at room temperature. Light signal was detected with the EnVision® multilabel plate reader (PerkinElmer).
Ebselen came out as an interesting hit. Ebselen is a synthetic organoselenium compound with the anti‐inflammatory and antioxidant property that has been evaluated in clinical trials for ischemic stroke and acute hearing loss. However, in vivo, ebselen rapidly reacts with peroxynitrite to form ebselen oxide. […] In addition, using surface plasmon resonance (SPR), we confirmed that both compounds could directly bind to JMHER2 (Fig. 1E,F). […] The slight decrease in HER2 expression was not significant. To examine whether HER2 inhibition by ebselen oxide was dependent on JMHER2/FERME interaction, we transfected HBMEC cells with a previously described glycoprotein D‐tagged HER2 form mutated on the critical amino acids involved in ERM binding (gD‐HER2‐EBM*).

HER2 (pY1248) in SKBR3 = target: T4, HER2 (pY1248) in SKBR3 (Homo sapiens, UniProt P04626); test: HER2 activation (pY1248-HER2) in SKBR3 cells, western/dot blot; format: cell-based; parameters: Inhibition of HER2 activation / HER2 inhibition, %: concentration or dose not given beside the values; conditions: for Inhibition of HER2 activation/activity: HER2+ breast cancer cells (SKBR3 in Fig. S1); for HER2 inhibition, % / EC50: Table 1, HER2+ breast cancer cells (ebselen oxide value equals SKBR3 48 h); for EC50: read-out: EC50, μM (HER2 inhibition)
T4 construct: host or cells: SKBR3

[3] = system: HER2+ breast cancer cells; test: HER2-dependent (anchorage-dependent) proliferation, Table 1; format: cell-based, human
Text: Given the promising effects of ebselen oxide, we then evaluated several structurally related compounds in order to define the structural determinants essential for HER2 binding and inhibition. […] These observations allowed us to define a pharmacophore of ebselen derivatives required for HER2 inhibition where atoms in position Y and R (shown in red in structure) can be modified as followed: Y is either a S or a Se=O and R is either H or Cl or Me but not OMe or CF3 (Table 1).

[4] = target: T5, JMHER2 (peptide derived from the cytosolic juxtamembrane sequence of HER2) (Homo sapiens, UniProt P04626); test: Surface plasmon resonance binding to immobilized HER2 juxtamembrane peptide; conditions: analyte 5 or 10 μM, 60 s injection
T5 construct: purchased Proteogenix
Description: Interaction was performed on a BIAcore T200 instrument BIAcore (Cytiva Life Sciences, Marlborough, MA, USA); GE Healthcare (Little Chalfont, UK). […] Ebselen or ebselen oxide was used as an analyte and injected at 5 or 10 μM at a flow rate of 25 μL·min^−1 for 60 s.

[5] = parameters: method as in PMID 11546910; conditions: after intravenous injection; cited from earlier work
[6] = parameters: method as in PMID 34299505; conditions: whatever the administered doses; cited from earlier work
[7] = parameters: method as in PMID 23299882; conditions: cited from earlier work
[8] = system: main protease of SARS‐CoV‐2; parameters: method as in PMID 33120196; conditions: cited from earlier work
SKBR3 = test: Incucyte proliferation, single agents and combinations, SKBR3; format: cell-based; conditions: Homo sapiens, SK-BR-3, 96 h; read-out: Reduction/inhibition of cell proliferation
Description: (§1) (A–C) Proliferation curves of HER2‐positive (SKBR3, A; BT474, B; NCI‐N87, C) cancer cell lines treated or not with ebselen oxide (10 μM), lapatinib (10–1000 nM), or combination of these agents, as indicated. Proliferation was assessed overtime by Incucyte during 4 days. Data are mean ± SD (n = 8–12) of a representative experiment out of 4 (A), 3 (B), or 2 (C) independent experiments. […] Proliferation was assessed by Incucyte during 4 days. […] Scale bars are […].

BT474 = test: Incucyte proliferation, single agents and combinations, BT474; format: cell-based; conditions: Homo sapiens, BT-474, 96 h; read-out: Reduction/inhibition of cell proliferation
Description: as §1

NCI-N87 [9] = test: Incucyte proliferation, single agents and combinations, NCI-N87; format: cell-based; conditions: Homo sapiens, NCI-N87, 96 h; read-out: Reduction/inhibition of cell proliferation
Description: as §1

NCI-N87 [10] = test: Anchorage-independent growth (spheroid assay, ULA plates), NCI-N87; format: cell-based, human; conditions: ebselen oxide 10 μM, lapatinib 10 nM, trastuzumab 10 μg·mL−1, alone or combined
Description: 5.10^3 cells/24‐well were seeded in a complete medium in ULA plates (Corning® Costar® (Corning, NY, USA) C LS3473‐24EA) in the presence of indicated compounds. Spheroids were imaged 6–8 days later with a phase‐contrast microscope, and their areas were measured using IMAGEJ software.
Proliferation was assessed overtime by Incucyte during 4 days. Data are mean ± SD (n = 8–12) of a representative experiment out of 4 (A), 3 (B), or 2 (C) independent experiments. One‐way ANOVA followed by Sidak multiple comparison test, (*, compared with Vehicle; ° and #, respectively, compared with lapatinib 10 and 1000 nM) ***P < 0.001, ****P < 0.0001. […] Proliferation was assessed by Incucyte during 4 days. Data are mean ± SD (n = 8–12) of a representative experiment out of two independent experiments. […] Images of a representative experiment out of 3 (G) or 4 (H) independent experiments and quantification of the colony total area are shown where data are mean ± SEM. One‐way ANOVA followed by multiple comparison test, *P < 0.05, **P < 0.01. Scale bars are 100 μM.

T4 sequence (P04626 23-1255): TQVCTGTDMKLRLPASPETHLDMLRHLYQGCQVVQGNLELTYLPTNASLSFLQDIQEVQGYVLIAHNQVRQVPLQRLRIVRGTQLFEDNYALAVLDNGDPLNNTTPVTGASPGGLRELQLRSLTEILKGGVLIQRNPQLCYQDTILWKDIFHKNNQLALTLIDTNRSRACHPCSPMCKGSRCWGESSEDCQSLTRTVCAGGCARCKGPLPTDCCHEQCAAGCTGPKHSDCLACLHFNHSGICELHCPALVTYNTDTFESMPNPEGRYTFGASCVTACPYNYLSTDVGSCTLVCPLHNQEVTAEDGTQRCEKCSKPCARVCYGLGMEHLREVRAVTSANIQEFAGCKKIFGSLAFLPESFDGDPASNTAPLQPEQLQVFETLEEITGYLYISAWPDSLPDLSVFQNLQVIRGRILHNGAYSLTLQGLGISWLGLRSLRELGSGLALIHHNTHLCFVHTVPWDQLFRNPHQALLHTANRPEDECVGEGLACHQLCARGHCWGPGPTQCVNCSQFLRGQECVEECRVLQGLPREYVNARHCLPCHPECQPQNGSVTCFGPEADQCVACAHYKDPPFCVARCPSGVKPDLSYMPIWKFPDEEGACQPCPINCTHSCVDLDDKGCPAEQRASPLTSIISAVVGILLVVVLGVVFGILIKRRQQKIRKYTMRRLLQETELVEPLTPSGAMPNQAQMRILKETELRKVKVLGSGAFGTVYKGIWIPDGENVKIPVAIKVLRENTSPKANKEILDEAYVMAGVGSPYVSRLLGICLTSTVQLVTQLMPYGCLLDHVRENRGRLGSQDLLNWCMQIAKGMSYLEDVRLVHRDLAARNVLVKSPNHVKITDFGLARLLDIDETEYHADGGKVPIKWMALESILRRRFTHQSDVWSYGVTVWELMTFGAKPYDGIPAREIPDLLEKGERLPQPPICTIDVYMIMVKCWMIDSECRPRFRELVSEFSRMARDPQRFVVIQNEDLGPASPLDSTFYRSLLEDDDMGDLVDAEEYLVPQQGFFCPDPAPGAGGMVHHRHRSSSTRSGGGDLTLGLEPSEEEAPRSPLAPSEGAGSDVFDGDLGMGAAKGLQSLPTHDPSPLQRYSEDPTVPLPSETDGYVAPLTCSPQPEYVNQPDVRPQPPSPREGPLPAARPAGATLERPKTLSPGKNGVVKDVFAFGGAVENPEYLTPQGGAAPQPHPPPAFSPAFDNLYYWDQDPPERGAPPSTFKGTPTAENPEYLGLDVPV
T1 sequence (P04626 23-1255): as above
T2 sequence (P04626 23-1255): as above

SMILES | Inhibition of HER2-FERME interaction, % ([2]; AlphaScreen, 20 h) [%] | EC50 ([2]; AlphaScreen, 20 h) [µM] | Competition with HER2/FERM interaction / binding affinity for JMHER2 [2] | Inhibition of HER2 activation/activity (HER2 (pY1248) in SKBR3) | HER2 inhibition, % (HER2 (pY1248) in SKBR3) [%] | EC50 (HER2 (pY1248) in SKBR3) [µM] | Effect on proliferation of HER2+ breast cancer cells [3] | other results
COc1cc2ncnc(Nc3cccc(Cl)c3)c2cc1OC [AG1478, Tyrphostin AG1478, reference compound] |  |  |  |  |  |  |  | Effect on HER2 activation (HER2 (pY1248) in NCI-N87; ebselen oxide 0–20 μM 24 h, AG1478 5 μM): decrease; Effect on HER2 activation (HER2 (pY1248) in SKOV3): decrease; Effect on proliferation (NCI-N87 [1]): decrease; Effect on proliferation (SKOV3): decrease
Cc1ccc(-n2sc3ccccc3c2=O)cc1 [Analog 1, 2‐(4‐methylphenyl)‐1,2‐benzisothiazol‐3(2H)‐one] | 45.0 | 0.716 | competed | inhibited | 65.0 | 39.8 | reduced | 
O=c1c2ccccc2sn1-c1ccc(Cl)cc1 [Analog 2, 2‐(4‐chlorophenyl)‐1,2‐benzisothiazol‐3(2H)‐one] | 40.4 | 1.08 | competed | inhibited | 75.4 | 41.7 | reduced | 
O=C1c2ccccc2C(=O)N1c1ccccc1 [Analog 4, N‐phenylphtalimide] | 47.3 | 0.003 | greater binding affinity | no or low inhibition | 0.0 |  | no or low inhibition | 
CC(C)c1ccc(N2Cc3ccccc3C2=O)cc1 [Analog 5, 2‐(4‐isopropyl phenyl)‐1‐isoindolinone] | 49.0 | 0.255 | greater binding affinity | no or low inhibition | 16.3 | 2 | no or low inhibition | 
Cc1ccc(-n2c(=O)c3ccccc3[s+]2[O-])cc1 (centres unmarked) [Analog 6, 2‐(4‐Methylphenyl)‐1‐oxo‐1,2‐benzothiazol‐3‐one] | 43.6 | 2.53 |  | no or low inhibition | 0.2 |  | no or low inhibition | 
O=c1c2ccccc2sn1-c1ccc(C(F)(F)F)cc1 [Analog 7, 2‐[4‐(trifluoromethyl)phenyl]‐1,2‐benzothiazol‐3‐one] | 100 | 97 | drastically reduced |  |  |  |  | 
O=c1c2ccccc2[s+]([O-])n1-c1ccc(Cl)cc1 (centres unmarked) [Analog 8, 2‐(4‐chlorophenyl)‐1‐oxo‐1,2‐benzothiazol‐3‐one] | 100 | 95.1 | drastically reduced |  |  |  |  | 
O=c1c2ccccc2[se]n1-c1ccccc1 [Ebselen] |  | 0.044 |  | poorly inhibited; also recorded: did not inhibit | 14.4 | 51.3 |  | IC50 ([2]; AlphaScreen, 20 h): 0.044 µM; Direct binding to JMHER2 (SPR) [4]: directly bind; Half-life [5]: 1 to 3 h; Time to maximum serum concentration [5]: 1 h; Tolerability in vivo [6]: always well tolerated; Blood–brain barrier permeation [7]: blood–brain barrier permeant; Inhibition of the main protease of SARS-CoV-2 [8]: highly active
CS(=O)(=O)CCNCc1ccc(-c2ccc3ncnc(Nc4ccc(OCc5cccc(F)c5)c(Cl)c4)c3c2)o1 [lapatinib, Lapatinib ditosylate, reference compound] |  |  |  |  |  |  |  | Effect on HER2 activation, single agents and combination (HER2 (pY1248) in SKBR3; SKBR3, ebselen oxide 10 μM, lapatinib 10 nM): partially decreased; Effect on HER2 activation, single agents and combination (HER2 (pY1248) in NCI-N87; ebselen oxide 10 μM, lapatinib 10 nM): partially decreased; inhibition at 0.01 µM (SKBR3): 39%; inhibition at 0.01 µM (BT474): 18%; inhibition at 0.01 µM (NCI-N87 [9]): 53%; Reduction of anchorage-independent growth (spheroid assay) (NCI-N87 [10]): 35%

— article PMC10552892, “Ebselen oxide and derivatives are new allosteric HER2 inhibitors for HER2‐positive cancers” (Molecular Oncology, 2023)
